Test results: patent US6509367B1 (priority 2001, dated 2003)
Read-outs that look alike come from different tables or passages of the source.

Key:
CB1 receptor = CB1 receptor (Rattus norvegicus, UniProt P20272); assay: biochemical; assay type: binding; conditions: for Ki: 1 nM [3H] CP 55,940, rat whole brain P2 membranes, 30° C. for 1 hr
Description: (§1) Male ICR mice (25-32 g), purchased from Harlan (Dublin, Va.), were housed in groups of five. All animals were kept in a temperature-controlled (20-22° C.) environment with a 12-hour light-dark cycle (lights on at 7 a.m.). Separate mice were used for testing each drug dose in the in vivo behavioral procedures. The mice were maintained on a […] light: dark cycle, and received food and water ad libitum. Brain tissue for binding studies was obtained from male Sprague-Dawley rats (150-200 g) purchased from Harlan Laboratories (Dublin, Va.).
All assays, as described briefly below, were performed in triplicate, and the results represent the combined data from three to six individual experiments. Following decapitation and rapid removal of the brain, whole brain was homogenized and centrifuged. The resulting pellet was termed P1. The supernatant was saved and combined with the two subsequent supernatants obtained from washing of the P1 pellet. The combined supernatant fractions were centrifuged, resulting in the P2 pellet. After further incubation and centrifuging, this pellet was resuspended in assay buffer to a protein concentration of approximately 2 mg/ml. The membrane preparation was quickly frozen in a bath solution of dry ice and 2-methylbutane (Sigma Chemical Co., St. Louis, Mo.), then stored at −80° C. for no more than 2 weeks. […] Binding was initiated by the addition of 150 μg of P2 membrane to test tubes containing 1 nM of [3H] […] Following incubation at 30° C. for 1 hr, binding was terminated by addition of ice-cold buffer and vacuum filtration through pretreated filters in a 12-well sampling manifold (Millipore, Bedford, Mass.). After washing, filters were placed into plastic scintillation vials (Packard, Downer Grove, Ill.) and shaken. The quantity of radioactivity present was determined by liquid scintillation spectrometry.

mice [1] = assay: Spontaneous (locomotor) activity in mice, compound alone (agonism test); assay type: in vivo; conditions: for ED50 / SA: > dose, 50% activity not achieved at this highest dose tested: mice, i.v.; for ED50: read-out: SA: > dose, 50% activity not achieved at this highest dose tested; for Max % inhibit of spontaneous locomotor activity, Compound Alone (in words: stimulation instead of inhibition): doses in mg/kg; for Max stim of spontaneous locomotor activity, Compound Alone / change in vivo at 1 mg/kg: at 1 mg/kg i.v.
Description: as §1
(§2) Measurement of spontaneous activity in mice occurred in standard activity chambers interfaced with a Digiscan Animal Activity Monitor (Omnitech Electronics, Inc., Columbus, Ohio). A standard tail-flick apparatus (described by Dewey et al., 1970) and a digital thermometer (Fisher Scientific, Pittsburgh, Pa.) were used to measure antinociception and rectal temperature, respectively.
(§3) All drugs were administered to the mice intravenously (i.v.) in the tail vein at a volume of 0.1 ml/10 g.
(§4) Maximum latency of 10 sec was used.

mice [2] = assay: Tail-flick antinociception in mice, compound alone (agonism test); assay type: in vivo; conditions: for ED50: Mus musculus, iv, read-out: TF: > dose, 50% activity not achieved at this highest dose tested; for TF: > dose, 50% activity not achieved at this highest dose tested: i.v.
Description: as §1, §2, §3, §4

mice [3] = assay: Rectal temperature (hypothermia) in mice, compound alone (agonism test); assay type: in vivo; conditions: for ED50: Mus musculus, iv, read-out: RT: > dose, 50% activity not achieved at this highest dose tested; for RT: > dose, 50% activity not achieved at this highest dose tested: i.v.
Description: as §1, §2, §3, §4

mice [4] = assay: Spontaneous activity in mice, compound in combination with 3 mg/kg Δ^9-THC (antagonism test); assay type: in vivo; conditions: for SA: maximum % antagonism of 3 mg/kg Δ^9-THC: analog 10 min before Δ^9-THC
Description: as §1, §2, §3, §4

mice [5] = assay: Tail-flick antinociception in mice, compound in combination with 3 mg/kg Δ^9-THC (antagonism test); assay type: in vivo
Description: as §1, §2, §3, §4

mice [6] = assay: Rectal temperature in mice, compound in combination with 3 mg/kg Δ^9-THC (antagonism test); assay type: in vivo
Description: as §1, §2, §3, §4

[7] = at the dose(s) [mg/kg] given in parentheses in the cell
[8] = Mus musculus, iv, read-out: Max stim of spontaneous locomotor activity, Compound Alone

Chain of CB1 receptor (P20272 whole entry): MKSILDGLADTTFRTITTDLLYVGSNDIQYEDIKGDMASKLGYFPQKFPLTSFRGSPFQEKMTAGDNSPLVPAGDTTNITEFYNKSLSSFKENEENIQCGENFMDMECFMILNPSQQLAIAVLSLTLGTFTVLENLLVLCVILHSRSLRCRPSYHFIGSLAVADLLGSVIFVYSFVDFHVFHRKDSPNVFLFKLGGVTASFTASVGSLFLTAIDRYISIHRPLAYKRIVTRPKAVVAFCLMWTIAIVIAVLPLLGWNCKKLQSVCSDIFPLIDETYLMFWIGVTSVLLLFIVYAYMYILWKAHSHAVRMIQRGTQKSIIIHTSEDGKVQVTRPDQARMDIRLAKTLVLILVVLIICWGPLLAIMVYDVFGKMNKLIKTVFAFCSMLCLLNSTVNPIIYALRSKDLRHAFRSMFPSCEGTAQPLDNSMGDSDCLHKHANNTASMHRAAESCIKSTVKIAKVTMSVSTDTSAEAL

Row | Compound | Ki (CB1 receptor; Ki (nM)) | ED50 (mice [1]; Mus musculus, iv) | Max % inhibit of spontaneous locomotor activity, Compound Alone (in words: stimulation instead of inhibition) (mice [1]) | ED50 (mice [2]) | ED50 (mice [3]) | Max stim of spontaneous locomotor activity, Compound with 3 mg/kg Δ^9-THC (mice [4]; at 30 mg/kg i.v.) | Ki (CB1 receptor; read-out: Ki) | Max stim of spontaneous locomotor activity, Compound Alone (mice [1]) | SA: > dose, 50% activity not achieved at this highest dose tested (mice [1]) | TF: > dose, 50% activity not achieved at this highest dose tested (mice [2]) | RT: > dose, 50% activity not achieved at this highest dose tested (mice [3]) | Max % inhibit of spontaneous locomotor activity, Compound with 3 mg/kg Δ^9-THC (mice [4]; at 0.3 mg/kg i.v.) | SA: maximum % antagonism of 3 mg/kg Δ^9-THC (mice [4]; at 3 mg/kg i.v.) | change in vivo at 1 mg/kg (mice [1]; [8]) | further results
1 | CCCCc1ccc(-n2nc(C(=O)NN3CCCCC3)c(C)c2-c2ccc(Cl)cc2)cc1 [Compound O-1254] | 226 ± 4 nM | > 30 mg/kg | stim at 3, 10 & 30 | > 30 mg/kg | > 30 mg/kg | 13% (30) |  |  |  |  |  |  |  |  | change in vivo at 30 mg/kg (mice [1]; Mus musculus, iv, at 30 mg/kg i.v., read-out: Max stim of spontaneous locomotor activity, Compound Alone): 29%; SA: maximum % antagonism of 3 mg/kg Δ^9-THC (in words) (mice [4]; [7]): stimulation; Max % inhibit of spontaneous locomotor activity, Compound with 3 mg/kg Δ^9-THC (in words) (mice [4]; doses in mg/kg): stim at 10; % MPE: maximum % antagonism of 3 mg/kg Δ^9-THC (mice [5]; at 30 mg/kg i.v.): 52% (30); RT: maximum % antagonism of 3 mg/kg Δ^9-THC (mice [6]; at 10 mg/kg i.v.): 31% (10)
2 | CCCCCc1ccc(-c2c(-c3ccc(Cl)cc3Cl)nn(C(=O)NN3CCCCC3)c2Br)cc1 [Compound O-1691, N-(N-Piperdyl)-3-(2,4-dichlrophenyl)-4-(4′-pentylphenyl)-5-bromopyrazole-carboxamide] |  |  |  |  |  |  | 1.5 ± 0.22 nM | 66% (1) | >30 mg/kg | >30 mg/kg | >30 mg/kg |  |  |  | Max % inhibit of spontaneous locomotor activity, Compound Alone (mice [1]; at 3 mg/kg i.v.): 15% (3); Max % inhibit of spontaneous locomotor activity, Compound with 3 mg/kg Δ^9-THC (mice [4]; at 0.1 mg/kg i.v.): 91% (0.1); SA: maximum % antagonism of 3 mg/kg Δ^9-THC (mice [4]; at 0.3 mg/kg i.v.): 6% (0.3); Max stim of spontaneous locomotor activity, Compound with 3 mg/kg Δ^9-THC (mice [4]; at 3 mg/kg i.v.): 150% (3)
3 | N-(N-Piperdyl)-3-(2,4-dichlrophenyl)-4-(4″-pentylphenyl)-5-iodopyrazole-carboxamide [Compound O-1704] |  |  |  |  |  |  | 2.2 nM | 57% (1) | >30 mg/kg | >30 mg/kg | >30 mg/kg | 85% (0.3) | 65% (3) |  | Max % inhibit of spontaneous locomotor activity, Compound Alone (mice [1]; at 30 mg/kg i.v.): 19% (30); Max stim of spontaneous locomotor activity, Compound with 3 mg/kg Δ^9-THC (mice [4]; at 10 mg/kg i.v.): 49% (10)
4 | CCCCCc1ccc(-c2cc(C(=O)NN3CCCCC3)nn2-c2ccc(Cl)cc2Cl)cc1 [Compound O-1710] | 27 ± 0.86 nM | > 30 mg/kg |  | > 30 mg/kg | > 30 mg/kg |  |  |  |  |  |  |  | 50% (3) | 4% | CB1 binding affinity, fold decrease by hydrogen substitution at position 4 (CB1 receptor; compared to the p-pentylphenyl analog with 4-methyl): 12 fold; inhibition in vivo at 10 mg/kg (mice [1]; Mus musculus, iv, at 10 mg/kg i.v., read-out: Max % inhibit of spontaneous locomotor activity, Compound Alone): 42%; Max % inhibit of spontaneous locomotor activity, Compound with 3 mg/kg Δ^9-THC (mice [4]; at 10 mg/kg i.v.): 82% (10); Max stim of spontaneous locomotor activity, Compound with 3 mg/kg Δ^9-THC (in words) (mice [4]; [7]): None (0.3, 1, 3, & 10); % MPE: maximum % antagonism of 3 mg/kg Δ^9-THC (mice [5]; at 10 mg/kg i.v.): 62% (10); RT: maximum % antagonism of 3 mg/kg Δ^9-THC (mice [6]; at 1 mg/kg i.v.): 51% (1)
5 | Cc1c(COCc2cccc3ccccc23)nn(-c2ccc(Cl)cc2Cl)c1-c1ccc(Cl)cc1 [Compound O-852] | 78 ± 10 nM | > 10 mg/kg | stim at 1, 3 & 10 | > 10 mg/kg | > 10 mg/kg |  |  |  |  |  |  |  |  | 52% | stimulation of locomotor activity (mice [1]; compound alone, dose not given (see Table 5)): 52%
6 | CCCCCc1ccc(-c2c(C)c(C(=O)NN3CCCCC3)nn2-c2ccc(Cl)cc2Cl)cc1 [Compound O-1302, N-(Piperidin-1-yl)-1-(2,4-dichlorophenyl)-4-methyl-5-(4-pentylphenyl)-1H-pyrazole-3-carboxamide] | 2.1 ± 0.08 nM | > 30 mg/kg |  | > 30 mg/kg | > 30 mg/kg | 107% (30) |  |  |  |  |  | 74% (0.3) |  |  | CB1 receptor binding affinity, fold greater than SR 141716A (CB1 receptor; compared to SR 141716A): approximately 3 fold; inhibition in vivo at 3 mg/kg (mice [1]; Mus musculus, iv, at 3 mg/kg i.v., read-out: Max % inhibit of spontaneous locomotor activity, Compound Alone): 26%; change in vivo at 10 mg/kg (mice [1]; Mus musculus, iv, at 10 mg/kg i.v., read-out: Max stim of spontaneous locomotor activity, Compound Alone): 2%; SA: maximum % antagonism of 3 mg/kg Δ^9-THC (mice [4]; at 1 mg/kg i.v.): 91% (1)
